As usually defined, the MIC is the lowest concentration found to suppress growth.

Values after ≈ are worked out from the molar mass of the structure shown. “Also recorded” adds a separate entry of the source. Starred links: 1 amine or outer side, 2 acyl side, 3 side chain; linkers in the order of their positions; H or OH if unused. Non-standard residues stand in square brackets, D forms with d. Residues, ends and D or L forms follow the SMILES beside them. No end group written: not given here. ξ: configuration not given here. *: point of attachment. K(Pam) = CCCCCCCCCCCCCCCC(=O)NCCCC[C@H](N[*:1])C(=O)[*:2]; X1 = CCCCCCCCCCCCCCCC(=O)OCC(C*)OC(=O)CCCCCCCCCCCCCCC; Palmitoyl = CCCCCCCCCCCCCCCC(=O)*; AEEA = NCCOCCOCC(=O)O; ξC = NC(CS)C(=O)O

The test system of one data set is red blood cell. Put plainly: Hemolysis assay. It counts as cell-based. The method, then:
(§1) Methods: Cellular toxicity was determined by Lactate dehydrogenase concentration and WST-1 cell proliferation assay as well as hemolysis assay.

The nature of data set [1]: Cellular toxicity, WST-1 cell proliferation assay. It counts as cell-based. How it is done:
as §1

Data set [2] can be described thus: Cellular toxicity, lactate dehydrogenase (LDH) assay. Type of data set: cell-based. How it is done:
as §1

Data set [3] has as its system bacteria from the ESKAPE panel. Type of data set: cell-based. The method, then: Methods: Broth microdilution assay. Log-phase bacteria were collected by centrifugation (2500 rpm, 10 min, 4° C.), washed twice with 10 mM sodium phosphate buffer containing 1% (w/v) TSB and the optical density at 600 nm was adjusted to 0.1. Approximately 5×10^5 CFU/ml bacteria were incubated with serial peptide concentrations (1.17-150 μM) in a final volume of 100 μl in 10 mM sodium phosphate buffer containing 1% (w/v) TSB for 2 hours at 37° C. After incubation, 100 μl of 6% TSB (w/v) was added and absorbance was measured at 600 nm (Tecan, Switzerland) and monitored for 18 hours. Afterwards, 100 μl per well was plated on LB agar to determine the number of viable bacteria microbiologically. Bactericidal activity was expressed as the LC99.9, the lowest concentration that killed ≥99.9% of bacteria.

A further data set concerns C. albicans. Put plainly: Broth microdilution assay, antifungal activity. It counts as cell-based. How it is done: (§2) Methods: Broth microdilution assay. Candida was cultured in TSB over night at 37° C., centrifuged (1500 rpm, 10 min, RT) and washed twice with 10 mM sodium phosphate buffer containing 1% (w/v) TSB. Candida cells were counted and approximately 5×10^5 CFU/ml fungi were incubated with serial peptide concentrations (1.17-150 μM) in a final volume of 100 μl in 10 mM sodium phosphate buffer containing 1% (w/v) TSB for 2 hours at 37° C. After incubation, 100 μl of 6% TSB (w/v) was added and absorbance was measured at 600 nm (Tecan, Switzerland) and monitored for 18 hours. Afterwards, 100 μl per well was plated on YPD agar to determine the number of viable bacteria microbiologically.
In general terms: In broth dilution the organism is exposed to a series of concentrations in liquid medium.

Another data set deals with C. tropicalis. Kind of data set: Broth microdilution assay, antifungal activity. Type of data set: cell-based. How it is done: as §2
Data set [4] relates to several pathogenic bacteria. Kind of data set: Radial diffusion assay and MIC screening for antimicrobial activity. Type of data set: cell-based. Particulars: radial diffusion assay and MIC determinations. The method, then: (§3) Methods: Log-phase bacteria were cultivated for up to 18 hours in TSB (TSB, Becton Dickinson, USA), washed and diluted to 4×10^6 CFU in 10 ml agar. Bacteria were incubated in 10 ml of 10 mM sodium phosphate, pH 7.4, containing 0.3 mg/ml of TSB powder and 1% (w/v) low EEO-agarose (AppliChem). Lipopeptides were pipetted into punched wells and diffused into the gel for 3 hours at 37° C. After that, a nutrient-rich gel with 6% TSB (w/v) and 1% agarose in 10 mM sodium phosphate buffer was poured on top of the first gel and incubated for up to 24 hours at 37° C. Then the diameter of inhibition zones was measured.
(§4) Clinical isolates of A. baumannii DSM30007, E. faecium DSM2918, K. pneumoniae DSM30104 and P. aeruginosa DSM1117 were provided by the Department for Laboratory Medicine at Robert-Bosch-Hospital Stuttgart, Germany. C. rodentium DSM16636 and E. coli DSM8695 were obtained from the Deutsche Sammlung von Mikroorganismen and Zellkultur GmbH Braunschweig, Germany. […]

Another data set has as its system ypuA promoter. Put plainly: ypuA promoter luciferase reporter gene assay. Type of data set: cell-based, Bacillus subitilis 1S34. The method, then: A specific bacterial reporter strain with the genetic background of Bacillus subitilis 1S34, carrying the promoter of the ypuA gene, fused to the firefly luciferase reporter gene, was used to identify cell envelope-related damage caused by treatment with antimicrobial compounds. Bacteria were cultured to an OD600 of 0.9 in LB broth with 5 μg/ml erythromycin at 37° C. and diluted to an OD600 of 0.02. Serial peptide dilutions (0.15-150 μM) were prepared in a microtiter plate and incubated with the adjusted bacterial suspension at 37° C. for 1 hour. Subsequently, citrate buffer (0.1 M, pH 5) containing 2 mM luciferin (Iris Biotech, Germany) was added and luminescence was measured using a microplate reader (Tecan, Switzerland).
(In general: Reporter assays use an easily measured gene product as a stand-in for the process of interest.)

A further data set has as its system S. aureus NCTC8325. Put plainly: Membrane potential assay with DiOC2(3). Type of data set: cell-based. Particulars: 30 min treatment. How it is done: S. aureus NCTC8325 was grown to log-phase in LB+0.1% glucose, harvested and the optical density at 600 nm (OD600) was adjusted to 0.5. Bacteria were incubated with 30 μM 3,3′-diethyloxacarbocyanine iodide (DiOC2(3), Invitrogen™) for 15 min in the dark and treated with serial peptide concentrations for 30 min. The protonophore carbonyl cyanide m-chlorophenyl hydrazone (CCCP, Sigma Aldrich) was used as a positive control and DMSO or 0.01% acetic acid as negative control. Fluorescence was measured at an excitation wavelength of 485 nm and two emission wavelengths, 530 nm (green) and 630 (nm) red, using a microplate reader (Tecan, Switzerland).

In a further data set the test system is S. Typhimurium. Kind of data set: Radial diffusion assay. Type of data set: cell-based. The method, then:
as §3, §4

Data set [5] can be described thus: Acute tolerability after oral administration. Type of data set: in vivo, C57BL/6N mice. The text has this: Methods: C57BL/6N mice were generated and maintained (including breeding and housing) at the animal facilities of the Helmholtz Centre for Infection Research (HZI) under enhanced specific pathogen-free (SPF) conditions (Stehr et al., 2009). Animals used in the experiments were gender and age matched. Female and male mice with an age of 8-12 weeks were used. Sterilized food and water ad libitum were provided. Mice were kept under a strict 12-hour light cycle (lights on at 7:00 am and off at […]) and housed in groups of two to six mice per cage. All mice were euthanized by asphyxiation with CO2 and cervical dislocation. All animal experiments were performed in agreement with the local government of Lower Saxony, Germany (approved permission No. 33.19-42502-04-18/2499).
Age- and gender-matched mice received two doses of peptides (0, 125 μg or 250 μg) solved in 100 μl PBS orally per day. Bodyweight and appearance were recorded. The following day, mice were sacrificed and stomach, kidney, spleen, liver, small intestine, cecum and colon were removed for histological scoring. Around 1 ml of blood was taken from the heart to measure inflammatory markers including creatinine in the kidney and the enzyme levels of glutamate-oxalacetate-transaminase (GOT) in the liver.

In the case of `CCCCCCCCCCCCCCCC(=O)NC(CSCC(COC(=O)CCCCCCCCCCCCCCC)OC(=O)CCCCCCCCCCCCCCC)C(=O)N[C@@H](CCCNC(=N)N)C(=O)NCC(=O)N[C@@H](CCCCN)C(=O)N[C@@H](C)C(=O)N[C@@H](CCCCN)C(=O)N[C@@H](CS)C(=O)N[C@@H](CS)C(=O)N[C@@H](CCCCN)C(=O)O` (stereo partly drawn) [Pam-4] (Palmitoyl-[ξC](X1)RGKAKCCK-OH), the “red blood cell disruption (hemolysis)” value with red blood cell is reported as “minimal red blood cell disruption”. In data set [1], the “metabolic activity (WST-1 assay)” value is given as “normal metabolic activity”. Further, the “LDH activity (cytotoxicity)” value in [2] is “no LDH activity”.

As to “Pam-Lys(Pam)-RGKAKCCK ({Palmitoyl-K(Pam)}-RGKAKCCK; cysteine pairing not given here) [Pam-5, octapeptide lipopeptide containing lysine as spacer]”, the bactericidal activity result in data set [3] (broth microdilution, 1.17-150 μM peptide, 2 hours) was “moderate effects”. In the data set on red blood cell, the “red blood cell disruption (hemolysis)” value is given as “minimal red blood cell disruption”. Moreover, the “antifungal activity against C. albicans” value with C. albicans was “modest activity; also recorded: some efficacy”. The “antifungal activity against C. tropicalis” value with C. tropicalis was “good activity; also recorded: highly effective”. Further, the “antimicrobial activity, inhibition of bacterial growth of the tested strains” value in data set [4] is “generally inactive”. Besides, the “metabolic activity (WST-1 assay)” value in [1] is on record as “normal metabolic activity”. Further, the “cell envelope damage (ypuA reporter)” value in the data set with ypuA promoter is “little cell envelope damage”. Further, the “LDH activity (cytotoxicity)” value in [2] is listed as “no LDH activity”. Moreover, in the data set on S. aureus NCTC8325, the “breakdown of the membrane potential” value is on record as “most pronounced”.

Regarding “RGKAKCCK (Cleavage product of defensin) [octapeptide, the C-terminal eight amino acids of human beta-defensin 1, non-modified]”, the “inhibition of S. Typhimurium growth” value in the data set on S. Typhimurium is “failed to inhibit”.

For `CCCCCCCCCCCCCCCC(=O)NCCOCCOCC(=O)N[C@@H](CCCNC(=N)N)C(=O)NCC(=O)N[C@@H](CCCCN)C(=O)N[C@@H](C)C(=O)N[C@@H](CCCCN)C(=O)N[C@@H](CS)C(=O)N[C@@H](CS)C(=O)N[C@@H](CCCCN)C(=O)O` [Pam-3] ({Palmitoyl-AEEA}-RGKAKCCK-OH), the MIC in data set [3] is 9.38 µM (≈ 12 µg/mL). For the same molecule, the “red blood cell disruption (hemolysis)” value with red blood cell was “modest red blood cell disruption”. In data set [5] (mouse, in vivo, po), the “histological examination of gastrointestinal, liver and kidney tissues” value is recorded as “no alterations”; the “serum level of creatinine” value was “no significant differences between the groups”; the “serum level of glutamic oxaloacetic transaminase (GOT)” value is “no significant differences between the groups”. In data set [5] (oral, mice, 24 hours after application, 125 or 250 μg doses), the “acute toxicity (histological analysis and serum markers)” value is recorded as “did not reveal any acute toxicity; also recorded: No danger signals”. Besides, in [1], the “metabolic activity (WST-1 assay)” value was “slight decrease”. Besides, the “LDH activity (cytotoxicity)” value in data set [2] is listed as “little LDH activity”.

Take `CCCCCCCCCCCCCCCC(=O)N[C@@H](CCCNC(=N)N)C(=O)NCC(=O)N[C@@H](CCCCN)C(=O)N[C@@H](C)C(=O)N[C@@H](CCCCN)C(=O)N[C@@H](CS)C(=O)N[C@@H](CS)C(=O)N[C@@H](CCCCN)C(=O)O` [Pam-2] (Palmitoyl-RGKAKCCK-OH): the “red blood cell disruption (hemolysis)” value with red blood cell is reported as “minimal red blood cell disruption”. Further, the “metabolic activity (WST-1 assay)” value in data set [1] was “modest decrease”. The “LDH activity (cytotoxicity)” value in [2] is reported as “some LDH activity”.

These data come from US20230365639A1, “DEFENSIN FRAGMENT DERIVED LIPOPEPTIDES FOR TREATMENT OF DRUG-RESISTANT MICROORGANISMS” (priority 2020, published 2023).
